From ChEMBL document CHEMBL1133958, “Derivatives of (2R,3R,4S)-2-aminomethylpyrrolidine-3,4-diol are selective alpha-mannosidase inhibitors” (Bioorg Med Chem Lett, 2001)
Active and inactive are the calls of the source. The rule behind the calls is not given here.

Tests used:
Saccharomyces cerevisiae [1] = test: Percentage inhibition of Alpha-glucosidase from Baker yeast (isomaltase) at 1 mM
[2] = molecular target: T1, Glucoamylase 1 (Rhizopus oryzae) (UniProt P07683); test: Percentage inhibition of Alpha-glucosidase from Rhizopus mold (amyloglucosidase) at 1 mM concentration; No inhibition; settings: Rhizopus arrhizus
T1 sequence (whole entry): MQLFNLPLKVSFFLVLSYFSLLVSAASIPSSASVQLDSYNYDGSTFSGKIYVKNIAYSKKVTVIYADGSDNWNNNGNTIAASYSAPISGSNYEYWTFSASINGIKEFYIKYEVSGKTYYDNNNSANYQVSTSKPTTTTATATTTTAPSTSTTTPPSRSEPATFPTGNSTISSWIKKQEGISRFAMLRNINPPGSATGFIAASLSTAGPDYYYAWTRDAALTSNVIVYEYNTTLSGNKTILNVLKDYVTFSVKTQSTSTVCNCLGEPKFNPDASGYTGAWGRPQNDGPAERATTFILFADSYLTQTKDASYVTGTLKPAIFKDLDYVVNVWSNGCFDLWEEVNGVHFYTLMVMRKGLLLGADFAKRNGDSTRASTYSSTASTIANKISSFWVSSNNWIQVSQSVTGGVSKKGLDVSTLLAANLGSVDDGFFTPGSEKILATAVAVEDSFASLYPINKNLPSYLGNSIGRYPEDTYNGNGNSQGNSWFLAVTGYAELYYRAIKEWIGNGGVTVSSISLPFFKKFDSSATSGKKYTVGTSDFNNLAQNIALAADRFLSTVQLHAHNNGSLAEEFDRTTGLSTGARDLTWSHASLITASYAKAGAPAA

[3] = molecular target: T2, Beta-galactosidase (Aspergillus niger) (UniProt P29853); test: Percentage inhibition of Beta-galactosidase from Aspergillus niger at 1 mM concentration; […]
T2 sequence (whole entry): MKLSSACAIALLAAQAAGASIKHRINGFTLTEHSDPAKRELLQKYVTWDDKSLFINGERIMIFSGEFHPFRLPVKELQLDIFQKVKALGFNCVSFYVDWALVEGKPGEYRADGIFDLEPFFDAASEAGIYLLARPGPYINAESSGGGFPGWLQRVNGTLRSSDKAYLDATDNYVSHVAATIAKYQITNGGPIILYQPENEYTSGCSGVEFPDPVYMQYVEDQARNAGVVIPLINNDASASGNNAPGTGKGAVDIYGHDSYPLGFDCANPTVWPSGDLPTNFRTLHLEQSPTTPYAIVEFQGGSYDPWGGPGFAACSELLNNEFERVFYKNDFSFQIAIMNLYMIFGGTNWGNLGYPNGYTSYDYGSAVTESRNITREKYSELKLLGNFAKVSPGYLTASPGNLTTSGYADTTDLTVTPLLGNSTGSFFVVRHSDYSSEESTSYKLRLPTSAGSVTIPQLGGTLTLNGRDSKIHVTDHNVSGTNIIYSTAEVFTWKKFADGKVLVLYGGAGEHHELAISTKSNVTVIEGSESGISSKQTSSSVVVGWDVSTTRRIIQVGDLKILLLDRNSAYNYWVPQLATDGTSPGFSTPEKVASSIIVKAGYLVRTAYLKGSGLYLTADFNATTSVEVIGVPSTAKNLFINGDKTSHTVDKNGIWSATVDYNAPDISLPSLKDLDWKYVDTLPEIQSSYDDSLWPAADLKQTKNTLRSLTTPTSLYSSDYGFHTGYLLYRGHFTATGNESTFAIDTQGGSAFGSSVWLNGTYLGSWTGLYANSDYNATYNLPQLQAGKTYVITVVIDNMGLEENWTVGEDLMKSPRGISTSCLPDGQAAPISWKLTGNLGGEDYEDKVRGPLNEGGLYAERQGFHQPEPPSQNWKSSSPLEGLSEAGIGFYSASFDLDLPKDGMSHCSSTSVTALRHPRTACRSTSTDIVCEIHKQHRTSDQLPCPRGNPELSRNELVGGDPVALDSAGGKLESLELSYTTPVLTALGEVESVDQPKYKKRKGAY

[4] = molecular target: Glucoamylase (Aspergillus niger) (UniProt P69328); test: Percentage inhibition of Alpha-glucosidase from Aspergillus niger (amyloglucosidase) at 1 mM; No inhibition
Glucoamylase (Aspergillus niger), sequence (P69328 whole entry): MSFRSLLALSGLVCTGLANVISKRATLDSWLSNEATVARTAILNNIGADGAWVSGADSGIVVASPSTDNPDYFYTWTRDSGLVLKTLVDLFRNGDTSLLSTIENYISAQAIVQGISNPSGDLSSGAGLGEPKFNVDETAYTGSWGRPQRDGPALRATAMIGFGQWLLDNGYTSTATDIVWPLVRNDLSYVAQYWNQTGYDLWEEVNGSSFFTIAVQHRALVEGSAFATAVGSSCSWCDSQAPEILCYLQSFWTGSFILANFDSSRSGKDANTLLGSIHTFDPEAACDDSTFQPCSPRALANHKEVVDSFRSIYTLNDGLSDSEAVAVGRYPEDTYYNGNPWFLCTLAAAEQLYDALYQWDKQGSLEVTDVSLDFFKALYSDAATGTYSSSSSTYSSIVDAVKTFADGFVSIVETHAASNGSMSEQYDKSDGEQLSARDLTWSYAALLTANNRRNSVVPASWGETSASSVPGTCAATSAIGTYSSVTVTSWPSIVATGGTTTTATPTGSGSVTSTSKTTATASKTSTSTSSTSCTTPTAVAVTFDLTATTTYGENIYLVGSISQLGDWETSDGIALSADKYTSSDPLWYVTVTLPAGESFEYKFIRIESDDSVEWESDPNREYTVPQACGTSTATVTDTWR

[5] = molecular target: Beta-glucosidase A (Caldicellulosiruptor saccharolyticus) (UniProt P10482); test: Percentage inhibition of Beta-Glucosidase from Caldocellum saccharol. at 1 mM
Beta-glucosidase A (Caldicellulosiruptor saccharolyticus), sequence (P10482 whole entry): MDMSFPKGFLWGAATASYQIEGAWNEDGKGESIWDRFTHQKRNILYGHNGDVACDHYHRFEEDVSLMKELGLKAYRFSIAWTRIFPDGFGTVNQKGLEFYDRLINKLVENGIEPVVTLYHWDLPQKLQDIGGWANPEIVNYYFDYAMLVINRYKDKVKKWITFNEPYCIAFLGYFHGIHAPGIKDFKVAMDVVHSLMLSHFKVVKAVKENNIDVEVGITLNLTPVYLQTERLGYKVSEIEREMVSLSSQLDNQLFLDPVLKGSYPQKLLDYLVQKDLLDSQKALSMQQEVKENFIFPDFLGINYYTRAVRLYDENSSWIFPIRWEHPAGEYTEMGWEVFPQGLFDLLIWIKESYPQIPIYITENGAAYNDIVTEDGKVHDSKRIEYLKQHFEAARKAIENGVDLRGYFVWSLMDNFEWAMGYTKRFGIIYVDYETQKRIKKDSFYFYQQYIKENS

[6] = Percentage inhibition of Beta-galactosidase from Aspergillus oryzae at 1 mM; No inhibition
[7] = molecular target: T3, Alpha-glucosidase (Oryza sativa Japonica Group) (UniProt Q9LGC6); test: Percentage inhibition of Alpha-glucosidase from Rice (maltase) at 1 mM; […]
T3 sequence (whole entry): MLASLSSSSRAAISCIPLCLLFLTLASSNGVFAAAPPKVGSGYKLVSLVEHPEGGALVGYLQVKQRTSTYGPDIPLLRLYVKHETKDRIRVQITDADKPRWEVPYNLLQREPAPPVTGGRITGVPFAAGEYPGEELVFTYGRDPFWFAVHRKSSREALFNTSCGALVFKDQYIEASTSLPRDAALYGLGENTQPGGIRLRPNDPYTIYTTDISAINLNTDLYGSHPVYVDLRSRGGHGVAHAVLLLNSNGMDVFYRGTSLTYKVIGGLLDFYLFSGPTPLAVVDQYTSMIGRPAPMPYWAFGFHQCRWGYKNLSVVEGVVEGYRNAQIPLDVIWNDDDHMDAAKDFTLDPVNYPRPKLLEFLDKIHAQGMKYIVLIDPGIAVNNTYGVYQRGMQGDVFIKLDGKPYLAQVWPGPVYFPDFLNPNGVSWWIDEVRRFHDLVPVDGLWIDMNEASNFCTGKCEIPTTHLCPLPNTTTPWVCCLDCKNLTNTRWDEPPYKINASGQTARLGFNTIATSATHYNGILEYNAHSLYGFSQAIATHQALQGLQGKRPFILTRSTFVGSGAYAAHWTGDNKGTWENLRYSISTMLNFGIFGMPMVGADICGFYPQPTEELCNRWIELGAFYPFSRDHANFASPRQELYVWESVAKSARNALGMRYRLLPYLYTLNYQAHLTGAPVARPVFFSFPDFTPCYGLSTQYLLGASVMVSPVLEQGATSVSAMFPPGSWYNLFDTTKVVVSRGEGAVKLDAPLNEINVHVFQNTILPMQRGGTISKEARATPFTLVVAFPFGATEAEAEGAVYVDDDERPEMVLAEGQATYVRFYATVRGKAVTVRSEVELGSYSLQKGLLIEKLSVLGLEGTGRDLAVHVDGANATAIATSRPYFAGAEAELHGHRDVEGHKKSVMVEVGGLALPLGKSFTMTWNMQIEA

[8] = Percentage inhibition of Beta-galactosidase from Jack bean at 1 mM concentration; No inhibition; settings: Canavalia ensiformis
Saccharomyces cerevisiae [9] = test: Percentage inhibition of Alpha-glucosidase from Yeast (maltase) at 1 mM; […]
[10] = molecular target: T4, Beta-galactosidase (Bos taurus) (UniProt Q58D55); test: Percentage inhibition of Beta-galactosidase from Bovine liver at 1 mM concentration; No inhibition
T4 sequence (whole entry): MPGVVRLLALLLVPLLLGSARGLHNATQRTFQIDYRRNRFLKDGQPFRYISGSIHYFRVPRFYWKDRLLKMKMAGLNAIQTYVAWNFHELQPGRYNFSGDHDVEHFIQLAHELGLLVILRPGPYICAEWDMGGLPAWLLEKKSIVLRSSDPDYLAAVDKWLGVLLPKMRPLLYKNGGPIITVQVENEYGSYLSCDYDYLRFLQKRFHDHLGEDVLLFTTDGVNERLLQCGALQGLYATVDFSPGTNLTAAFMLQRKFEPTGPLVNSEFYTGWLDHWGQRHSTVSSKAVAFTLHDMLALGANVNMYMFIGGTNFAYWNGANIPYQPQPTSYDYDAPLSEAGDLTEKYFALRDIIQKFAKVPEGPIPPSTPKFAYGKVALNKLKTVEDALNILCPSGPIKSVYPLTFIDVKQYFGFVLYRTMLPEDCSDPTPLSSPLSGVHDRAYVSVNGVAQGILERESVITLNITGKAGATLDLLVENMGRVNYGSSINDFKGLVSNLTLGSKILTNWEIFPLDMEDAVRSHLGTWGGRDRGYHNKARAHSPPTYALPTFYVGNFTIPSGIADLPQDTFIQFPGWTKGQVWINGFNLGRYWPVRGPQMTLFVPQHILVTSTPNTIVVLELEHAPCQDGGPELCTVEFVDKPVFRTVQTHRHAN

[11] = molecular target: Beta-galactosidase (Escherichia coli K-12) (UniProt P00722); test: Percentage inhibition of Beta-galactosidase from Escherichia coli at 1 mM concentration; No inhibition
Beta-galactosidase (Escherichia coli K-12), sequence (P00722 whole entry): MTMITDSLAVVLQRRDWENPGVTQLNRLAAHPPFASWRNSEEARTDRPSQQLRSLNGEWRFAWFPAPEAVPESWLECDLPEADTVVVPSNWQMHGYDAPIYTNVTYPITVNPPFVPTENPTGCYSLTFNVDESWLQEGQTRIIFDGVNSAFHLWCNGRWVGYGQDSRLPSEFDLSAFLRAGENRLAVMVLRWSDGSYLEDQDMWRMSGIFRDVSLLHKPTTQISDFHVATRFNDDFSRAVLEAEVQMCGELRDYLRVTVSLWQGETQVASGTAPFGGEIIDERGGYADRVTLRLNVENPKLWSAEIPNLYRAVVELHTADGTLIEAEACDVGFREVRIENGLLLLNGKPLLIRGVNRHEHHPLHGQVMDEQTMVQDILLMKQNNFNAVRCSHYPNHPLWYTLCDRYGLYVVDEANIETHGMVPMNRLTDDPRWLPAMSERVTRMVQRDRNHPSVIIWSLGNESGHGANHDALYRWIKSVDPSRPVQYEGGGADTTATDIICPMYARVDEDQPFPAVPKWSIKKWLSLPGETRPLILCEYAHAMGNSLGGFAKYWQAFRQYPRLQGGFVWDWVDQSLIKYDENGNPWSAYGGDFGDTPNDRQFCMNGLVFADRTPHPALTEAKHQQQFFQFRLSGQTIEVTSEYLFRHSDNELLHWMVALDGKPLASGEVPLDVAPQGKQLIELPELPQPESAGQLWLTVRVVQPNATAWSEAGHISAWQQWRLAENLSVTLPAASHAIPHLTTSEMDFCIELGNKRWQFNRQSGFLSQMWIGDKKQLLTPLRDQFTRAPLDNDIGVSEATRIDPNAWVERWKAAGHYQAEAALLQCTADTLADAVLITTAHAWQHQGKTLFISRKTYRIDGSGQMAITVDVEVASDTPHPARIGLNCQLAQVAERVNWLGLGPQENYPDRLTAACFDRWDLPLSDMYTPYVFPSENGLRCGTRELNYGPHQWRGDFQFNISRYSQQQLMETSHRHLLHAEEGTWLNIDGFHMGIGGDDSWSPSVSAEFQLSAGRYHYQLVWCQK

[12] = system: Alpha-mannosidase (Prunus dulcis); test: Percentage inhibition of Alpha-mannosidase from Almond at 1 mM
[13] = molecular target: Beta-galactosidase (Escherichia coli K-12) (UniProt P00722); test: Percentage inhibition of Beta-galactosidase from Escherichia coli at 1 mM concentration
Saccharomyces cerevisiae [14] = test: Percentage inhibition of Alpha-glucosidase from Yeast (maltase) at 1 mM
[15] = Inhibitory activity towards Alpha-glucosidase from Baker yeast (isomaltase); set-up: species or system Saccharomyces cerevisiae
[16] = molecular target: T2, Beta-galactosidase (Aspergillus niger); test: Percentage inhibition of Beta-galactosidase from Aspergillus niger at 1 mM concentration
Beta-glucosidase A [17] = molecular target: T5, Beta-glucosidase A (Caldicellulosiruptor saccharolyticus, UniProt P10482); test: Inhibitory activity towards Beta-Glucosidase from Caldocellum saccharol.
T5 sequence (P10482 whole entry): as the sequence (P10482 whole entry) above

[18] = Inhibitory activity towards Alpha-glucosidase from Yeast (maltase); set-up: species or system Saccharomyces cerevisiae
Beta-glucosidase A [19] = molecular target: T5, Beta-glucosidase A; test: Inhibitory activity towards Beta-Glucosidase from Caldocellum saccharol
[20] = Percentage inhibition of Beta-galactosidase from Aspergillus oryzae at 1 mM
Saccharomyces cerevisiae [21] = test: Percentage inhibition of Alpha-glucosidase from Baker yeast (isomaltase) at 1 mM; No inhibition
[22] = molecular target: T4, Beta-galactosidase (Bos taurus); test: Percentage inhibition of Beta-galactosidase from Bovine liver at 1 mM concentration
[23] = molecular target: Beta-glucosidase A (Caldicellulosiruptor saccharolyticus) (UniProt P10482); test: Percentage inhibition of Beta-Glucosidase from Caldocellum saccharol. at 1 mM; No inhibition

inhibition (Saccharomyces cerevisiae [1])	inhibition [2]	inhibition [3]	inhibition [4]	inhibition [5]	inhibition [6]	inhibition [7]	inhibition [8]	inhibition (Saccharomyces cerevisiae [9])	inhibition [10]	inhibition [11]	inhibition [12]	inhibition [13]	inhibition (Saccharomyces cerevisiae [14])	IC50 [15]	Ki [15]	inhibition [16]	inhibition (Saccharomyces cerevisiae [21])	Compound	also measured
33%	inactive	inactive	inactive	43%	inactive	inactive	inactive	inactive	inactive	inactive	–	–	–	–	–	–	–	CC(=O)N(Cc1ccccc1)CC1NCC(O)C1O (stereo not given)	–
34%	inactive	inactive	inactive	49%	inactive	inactive	–	inactive	inactive	–	48%	34%	–	–	–	–	–	C[C@@H](NCC1NCC(O)C1O)c1ccccc1 (stereo not given in full)	–
92%	inactive	–	inactive	29%	inactive	inactive	–	–	inactive	inactive	53%	–	30%	170 µM	71 µM	26%	–	OC1CNC(CNC2CCCC2)C1O (stereo not given)	–
23%	inactive	inactive	inactive	38%	inactive	inactive	–	inactive	inactive	inactive	68%	–	–	–	–	–	–	OC1CNC(CNCc2cccs2)C1O (stereo not given)	–
90%	inactive	–	inactive	76%	–	inactive	–	–	inactive	–	59%	49%	55%	120 µM	40 µM	41%	–	OC1CNC(CNCn2ccnc2)C1O (stereo not given)	IC50 (Beta-glucosidase A [17]): 290 µM; IC50 [18]: 610 µM; Ki (Beta-glucosidase A [19]): 120 µM; inhibition [20]: 24%
94%	inactive	–	inactive	75%	inactive	inactive	–	–	inactive	inactive	29%	–	66%	65 µM	45 µM	39%	–	OC1CNC(CNCc2ccco2)C1O (stereo not given)	IC50 (Beta-glucosidase A [17]): 250 µM; IC50 [18]: 280 µM; Ki (Beta-glucosidase A [19]): 60 µM
–	inactive	inactive	inactive	40%	inactive	inactive	inactive	inactive	–	inactive	–	–	–	–	–	–	inactive	OCC(O)[C@H]1NC[C@H](O)[C@@H]1O (stereo not given in full)	inhibition [22]: 32%
–	inactive	inactive	inactive	–	inactive	inactive	inactive	inactive	inactive	inactive	–	–	–	–	–	–	inactive	OC1CNC(CCNc2ccccc2)C1O (stereo not given)	inhibition [23]: inactive
–	inactive	inactive	inactive	–	inactive	inactive	–	inactive	–	–	–	24%	–	–	–	–	inactive	OC1CNC(CNCc2ccccc2)C1O (stereo not given)	inhibition [22]: 26%; inhibition [23]: inactive
